Reference: patent US20060135568A1, “Methods of treating microbial infections in humans and animals” (priority 2002, published 2006)
“Also recorded” adds a separate entry of the source.

Tested on: b-subunit of ATP synthase (atpF, Rv1306) and hsp (Rv0251c)
Format: cell-based, M. bovis BCG (Pasteur strain, ATCC 35734)

## CCCCCCCCS(=O)(=O)CC(N)=O [OSA, n-octanesulfonylacetamide]
  overexpression of hsp and b-subunit of ATP synthase on 2-D gels: significant overexpression
  time to overexpression of both proteins post exposure: ≤ 3.5 h

## NNC(=O)c1ccncc1 [INH, isoniazid]
  overexpression of hsp and b-subunit of ATP synthase on 2-D gels: Neither; also recorded: failed to result in overexpression

## C/C=C/C/C=C/CCC(=O)[C@H]1O[C@H]1C(N)=O [cerulenin]
  overexpression of hsp and b-subunit of ATP synthase on 2-D gels: Neither; also recorded: failed to result in overexpression
